Laboratory results: patent US20060167229A1, “Biologically active peptide conjugates” (priority 2002, published 2006)
Marks after values point to notes of the source that are not given here. Ends that are not written are not given here.

Assays:
Type in all cases: in vivo, BALB/c mice
NK cell = NK cell cytotoxicity activity test (spleen cells of treated mice against YAC-1 target cells, MTT); conditions: for NK cell cytotoxic activity, X ± SD (%): healthy mice; for effect on the cytotoxic activity of NK cells (summary): statistically significant difference from saline in any of the dosage groups 0.5-500 μg/kg/day
Experimental: (§1) The above substances were all dissolved in 0.5 ml saline and injected intraperitoneal (i.p.) for 15 continuous days, once per day.
(§2) Ten mice per group. The day after the last test substance administration, the mice were sacrificed by cervical dislocation. The spleen was isolated aseptically and manually dispersed in cold D-Hank's solution using an injection needle. The dispersed cell suspension was further sieved through a 100 gauge 150 μm diameter stainless steel sieve. After centrifugation at 200 g for 10 minutes, the supernatant was discarded. The cell pellet was re-suspended in 10 volume of Tris-NH4Cl buffer and then kept standing still for 10 minutes at room temperature. The suspended cells were collected by centrifugation at 150 g for 10 minutes. The cells were washed 2-4 times with cold D-Hank's solution by re-suspending and collecting by centrifugation with condition as described above. The washed cells were then diluted to the desired cell densities by RPMI-1640 culture medium, containing 10% fetal bovine serum.
Mice spleen cells were prepared to 4×10^6/ml as described in section 1.1 above. Target cells YAC-1 were brought to log phase and adjusted to 1×10^5/ml. Using a 96 wells cell culture plate, […] were added to the control well containing only the spleen cells; […] and 100 μl culture medium were added to the control well containing only target cells; 100 μl mouse spleen cells and 100 μl target cells were added to the NK activity assay well. Three parallel sets of the above were prepared per mouse.
Samples were centrifuged at 150 g for 10 minutes to collect the cells. The supernatant was discarded and 50 μl/well MTT of 1 mg/ml was added. The reaction-mixture was then shaken for 2 minutes, and incubated at 37° C., 5% CO2 for 4 hours. The supernatant was discarded after centrifugation at 150 g for 10 minutes. […] 40 mM HCl-2-propanol was added and shaken for 3 minutes. An ELISA reader was used to obtain OD570 nm of each well referenced at 630 nm.

anti-SRBC antibody = test: Sheep Red Blood Cell (SRBC) hemolysis test, antibody formation; conditions: for anti-SRBC antibody formation, X ± SD (Unit): healthy mice, SRBC day 12 (IFN-γ, IL-2 3×10^5 IU/kg/day), saline 32 ± 7; for effect on the synthesis of anti-SRBC antibody upon the antigenic challenge (summary): statistically significant difference from saline in any of the dosage groups 0.5-500 μg/kg/day
Experimental: Sheep red blood cells (SRBC) were prepared by collecting blood from cervical vein and put into a sterile flask with glass beads. The flask was shaken for 3 minutes and the blood then mixed with Alsever solution (glucose 2.05 g, NaCl 0.4 g, […] 0.8 g, adjust to 100 ml with distilled water) and stored at 4° C. Immediately before use, samples were centrifuged at 130 g, 5 minutes to collect the SRBC. The cells were washed two times by re-suspension and centrifugation in normal saline. Then the cell pellet was collected by centrifugation at 180 g for 10 minutes and re-suspended in saline to make the final working SRBC suspension, 2% (v/v).
Complement was prepared by adding 10 volumes of fresh Cavy serum into one volume centrifuge packed SRBC, and then gently shaking for 30 minutes at 4° C. The SRBC was removed by centrifugation at 200 g for 10 minutes. 10 volumes of normal saline were added to obtain the working complement solution.
The test substances were administered as described in section 1.1, plus intraperitoneal injection 0.2 ml SRBC per mouse on day 12. On the day after the last test substance administration (day 16), blood was collected from the eye canthus and left at room temperature for one hour for serum exudation. After centrifugation at 200 g for 10 minutes, the serum was diluted by 500 times with normal saline.
To 1 ml diluted mouse serum of each mouse, 0.5 ml SRBC suspension was added. Ice cold. Then 1 ml working complement solution was added and incubated at 37° C. water bath for 10 minutes. Reactions were terminated by ice cold. Samples were then centrifuged at 200 g for 10 minutes to obtain the supernatant.
To 1 ml of this supernatant, 3 ml Drabkin solution was added and left at room temperature for 10 minutes. OD540 nm was obtained.
Reference OD540 nm was obtained by mixing 0.25 ml SRBC suspension with Drabkin solution to 4 ml and placed at room temperature for 10 minutes before OD540 nm was taken.
Sample serum index=(OD540 nm of test sample÷reference OD540 nm)×500

thymus gland = test: Immunity organ weight test, thymus gland index; conditions: for weight of thymus gland (thymus gland index), X ± SD (%): healthy mice, saline 0.12 ± 0.02; for effect on the weight of the thymus gland (summary): statistically significant difference from saline in any of the dosage groups 0.5-500 μg/kg/day
Experimental: (§3) One day after the last test substance administration (day 16), the liver, spleen, and thymus gland were separated and blotted dry with filter paper and weighed. The phagocytosis index α was calculated as below: α=(^3√{square root over ( )}K)(W÷WLS)
Thymus gland index (%)=(thymus weight/body weight)×100%

spleen = test: Immunity organ weight test, spleen index; conditions: for weight of spleen (spleen index), X ± SD (%): healthy mice, saline 0.53 ± 0.05; for effect on the weight of the spleen (summary): statistically significant difference from saline in any of the dosage groups 0.5-500 μg/kg/day
Experimental: as §3
Spleen index (%)=(spleen weight/body weight)×100%

T lymphocyte = T lymphocyte transformation test (ConA-stimulated spleen cells of treated mice, MTT); conditions: for X ± SD (stimulation index): healthy mice, saline 1.3 ± 0.1; for effect on T lymphocyte transformation (summary): statistically significant difference from saline in any of the dosage groups 0.5-500 μg/kg/day
Experimental: as §1, §2
Spleen cells of density 1×10^6/ml were placed onto a 96 wells cell culture plate, 100 μL/well, three parallel wells each of the assay sample and control sample per mouse. To the assay wells, 100 μl/well ConA of 100 μg/ml in RPMI-1640 was added, and […] plain RPMI-1640 was used for the controls. The cells were incubated for 66 hrs at 37° C., 5% CO2. The cells were then pelleted by centrifugation at 150 g for 10 minutes.
50 μl/well MTT of 1 mg/ml in RPMI-1640 was added to the cell pellet and the cells re-suspended by shaking for 2 minutes. The incubation was continued for 4 hours. The supernatant was discarded after centrifugation at 150 g for 10 minutes. 120 μl 40 mM HCl-2-propanol was added to the cell pellet and shaken for 3 minutes. […]
Each mouse formed three assay wells and three control wells. The Stimulation Index (SI) of each mouse was obtained by first deriving the average OD of the three parallel wells, then dividing the value of the assay wells by the control wells.

mononuclear phagocyte = test: Carbon particle clearance test, phagocytosis function; design: key to X ± SD (phagocytotic index): α = cube root of K × (body weight ÷ liver+spleen weight)
Experimental: On the next day after the last test substance administration (day 16), the mice were injected with […] body weight India ink (5 times dilution with normal saline) from the tail vein.
One minute and five minutes after Indian ink injection, 20 μl blood was obtained from the eye canthus with a heparinized tubing. The blood was mixed with 2 ml 0.1% w/v Na2CO3 and then OD680 nm obtained. The outline clear index K was calculated by the following formula: K=(lgA1−lgA2)÷(t2−t1)
as §3

[1] = peptide 500 μg/kg/day i.p. 15 days (IFN-γ, IL-2 3×10^5 IU/kg/day), saline 63 ± 9
[2] = peptide 0.5 μg/kg/day i.p. 15 days
[3] = peptide 5 μg/kg/day i.p. 15 days
[4] = peptide 50 μg/kg/day i.p. 15 days
[5] = peptide 500 μg/kg/day i.p. 15 days
[6] = peptide 5 μg/kg/day i.p. 15 days (IFN-γ, IL-2 3×10^5 IU/kg/day)
[7] = peptide 50 μg/kg/day i.p. 15 days (IFN-γ, IL-2 3×10^5 IU/kg/day)
[8] = peptide 500 μg/kg/day i.p. 15 days (IFN-γ, IL-2 3×10^5 IU/kg/day)
[9] = peptide 0.5 μg/kg/day i.p. 15 days (IFN-γ, IL-2 3×10^5 IU/kg/day)

Substance | NK cell cytotoxic activity, X ± SD (%) (NK cell; [1]) | effect on the cytotoxic activity of NK cells (summary) (NK cell) | anti-SRBC antibody formation, X ± SD (Unit) (anti-SRBC antibody; [2]) | anti-SRBC antibody formation, X ± SD (Unit) (anti-SRBC antibody; [3]) | anti-SRBC antibody formation, X ± SD (Unit) (anti-SRBC antibody; [4]) | anti-SRBC antibody formation, X ± SD (Unit) (anti-SRBC antibody; [5]) | effect on the synthesis of anti-SRBC antibody upon the antigenic challenge (summary) (anti-SRBC antibody) | weight of thymus gland (thymus gland index), X ± SD (%) (thymus gland; [6]) | weight of thymus gland (thymus gland index), X ± SD (%) (thymus gland; [7]) | effect on the weight of the thymus gland (summary) (thymus gland) | weight of spleen (spleen index), X ± SD (%) (spleen; [5]) | effect on the weight of the spleen (summary) (spleen) | X ± SD (stimulation index) (T lymphocyte; [8]) | effect on T lymphocyte transformation (summary) (T lymphocyte) | weight of thymus gland (thymus gland index), X ± SD (%) (thymus gland; [8]) | weight of thymus gland (thymus gland index), X ± SD (%) (thymus gland; [9]) | also measured
Ala Ala Phe [CMS023] | 79 ± 12 | increase | 108 ± 21*^@^ Unit | 166 ± 27*^@^ Unit | 84 ± 11*^@^ Unit | 110 ± 45*^@^ Unit | enhance | 0.23 ± 0.06 % | 0.20 ± 0.02*^@^ % | increase | 0.36 ± 0.06 | decrease | – | – | – | – | –
Phe Asn Glu Gln (FNEQ; printed: Phe Asn Glu Gln) [CMS029] | 87 ± 4 | increase | 18 ± 7 Unit | 147 ± 23*^@^ Unit | 143 ± 13*^@^ Unit | 115 ± 22*^@^ Unit | – | 0.21 ± 0.03 % | 0.18 ± 0.05 % | increase | – | decrease | 1.7 ± 0.3 | enhance | 0.22 ± 0.04*^@^ % | – | weight of spleen (spleen index), X ± SD (%) (spleen; Table 28, peptide 5 μg/kg/day (so in the source) i.p. 15 days (IFN-γ, IL-2 3×10^5 IU/kg/day)): 0.42 ± 0.04 %
Phe Gln Ser Phe (FQSF; printed: Phe Gln Ser Phe) [CMS033] | 89 ± 8 | increase | 78 ± 12*^@ Unit | 128 ± 39*^@^ Unit | 112 ± 15*^@^ Unit | 143 ± 27*^@^ Unit | enhance | 0.20 ± 0.02 % | 0.18 ± 0.03 % | increase | – | – | – | – | 0.25 ± 0.04*^@^ % | – | –
Phe Glu Gln Asn Met (FEQNM; printed: Phe Glu Gln Asn Met) [CMS027] | 88 ± 8 | increase | 99 ± 14*^@^ Unit | 117 ± 45*^@^ Unit | 93 ± 11*^@^ Unit | – | enhance | – | 0.21 ± 0.03*^@^ % | increase | 0.37 ± 0.03 | decrease | – | – | 0.20 ± 0.03*^ % | – | X ± SD (phagocytotic index) (mononuclear phagocyte; healthy mice, peptide 0.5 μg/kg/day i.p. 15 days (IFN-γ, IL-2 3×10^5 IU/kg/day), saline 5.1 ± 0.6): 6.4 ± 0.6; effect on the phagocytotic activity of mononuclear phagocyte (summary) (mononuclear phagocyte; statistically significant difference from saline in any of the dosage groups 0.5-500 μg/kg/day): enhance
TTYNSIM [CMS026] | 89 ± 7 | increase | 19 ± 6 Unit | 191 ± 17*^@^ Unit | 98 ± 9*^@^ Unit | – | – | 0.31 ± 0.05*^@^ % | 0.27 ± 0.02*^@^ % | increase | – | – | – | – | 0.20 ± 0.03*^ % | 0.21 ± 0.05 % | NK cell cytotoxic activity, X ± SD (%) (NK cell; peptide 50 μg/kg/day i.p. 15 days (IFN-γ, IL-2 3×10^5 IU/kg/day), saline 56 ± 8): 76 ± 9 %
VVYPWTQRF [CMS002] | – | increase | 4 ± 1 Unit | – | – | 87 ± 18*^@ Unit | – | 0.24 ± 0.05*^ % | 0.21 ± 0.02*^@^ % | increase | – | – | 1.8 ± 0.3 | enhance | – | 0.26 ± 0.06*^@^ % | X ± SD (stimulation index) (T lymphocyte; [7]): 2.6 ± 0.3*^@^; NK cell cytotoxic activity, X ± SD (%) (NK cell; peptide 0.5 μg/kg/day i.p. 15 days (IFN-γ, IL-2 3×10^5 IU/kg/day), saline 58 ± 7): 76 ± 9 %
